# Data published in patent US9005608B2, “Stabilized solubility-enhanced formulations for oral delivery” (Adds Pharmaceuticals LLC, priority 2009, dated 2015).
# Tests used:
# [1] = CoQ10 solubility at 37° C. in water and in placebo AQUA Q10 formulation; type: physicochemical
# Procedure: CoQ10 solubility was measured at 37° C. in water as well as in a placebo AQUA Q10 formulation, i.e., Incromega™ E3322, Capmul™ CMC C-8, and Cremophor™ EL at weight ratio of 40/25/20.
# [2] = CoQ10 solubility/concentration in non-aqueous formulations at elevated temperature; type: physicochemical; conditions: for solubility: organic solvent or mixture
# Source text: While not intending to be bound to any theory, we posit that when a poorly water-soluble agent is incorporated into a porous carrier with narrow pores, it experiences strong geometric restrictions and large interfacial interactions with the porous matrix. […] Thus, absorbing a previously solubilized CoQ10 liquid formulation, for example, into the narrow pore channels of Fujicalin® (calcium hydrogen phosphate) inhibits re-crystallization and aggregation of CoQ10. This enables, to a large extent, even dispersion and distribution of pharmaceutically active forms of CoQ10 in solubilized form. After the Fujicalin® porous particulates dissolve in acidic gastric fluid, the SSS is released and the trapped SEF self-emulsifies in the fluid to form droplets of sufficiently small size, thereby facilitating absorption of CoQ10 cross the epithelial cells. Other porous particulates include silicon dioxide and magnesium aluminum metasilicate. Combinations may also be used.
# CoQ10 in a concentration of >100 mg/ml in a non-aqueous formulation, preferably SEF, at a temperature above 25° C., preferably at or above 48° C. has been achieved.
# The invention formulations solubilize CoQ10 at a concentration of >100 mg/ml at a temperature between 30° C. and 60° C., preferably not above 50° C. In addition, the nutrient/vitamin components readily dissolve in aqueous media, so that >75% of these components are released within an hour.
smiles,measurement,setting,value
"COC1=C(OC)C(=O)C(C/C=C(\C)CC/C=C(\C)CC/C=C(\C)CC/C=C(\C)CC/C=C(\C)CC/C=C(\C)CC/C=C(\C)CC/C=C(\C)CC/C=C(\C)CCC=C(C)C)=C(C)C1=O [CoQ10, Coenzyme Q10]",CoQ10 solubility in AQUA Q10 formulation relative to solubility in water,[1],"over 400,000 times"
same,solubility,"[1]; placebo AQUA Q10 formulation, oil or lipid, placebo Incromega E3322/Capmul CMC C-8/Cremophor EL 40/25/20, read-out: CoQ10 solubility in AQUA Q10 formulation",177 mg/mL
same,solubility,"[1]; water, read-out: CoQ10 solubility in water",0.0004 mg/mL
same,solubility,"[2]; invention formulations, temperature between 30° C. and 60° C., preferably not above 50° C., read-out: CoQ10 concentration solubilized by the invention formulations",> 100 mg/mL
same,solubility,"[2]; non-aqueous formulations, elevated temperature close to its melting temperature (48° C.), read-out: solubility of CoQ10 in non-aqueous formulations",> 100 mg/mL
same,CoQ10 concentration in a non-aqueous formulation,"[2]; preferably SEF, temperature above 25° C., preferably at or above 48° C.",> 100 mg/mL
